The target of experiment [1] is T1, TSG101 UEV (Homo sapiens, UniProt Q99816).
T1 construct: TSG101_UEV__Q99816_1_145; made in house; host or cells: Escherichia coli BL21-Gold(DE3)
T1 sequence (Q99816 1-145): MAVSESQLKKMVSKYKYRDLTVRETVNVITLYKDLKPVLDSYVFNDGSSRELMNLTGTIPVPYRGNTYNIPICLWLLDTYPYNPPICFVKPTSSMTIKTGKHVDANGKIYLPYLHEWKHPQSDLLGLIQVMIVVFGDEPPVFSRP
Kind of experiment: FP displacement assay, TSG101 UEV. Type of experiment: binding. To be noted: for IC50: read-out: IC50 values of displacement curves, with SEM; for Kd: read-out: KD values ± SEM. On the procedure:
(§1) FP experiments were performed as described previously (Kliche et al, [2021]). Shortly, in order to monitor the binding event, FITC‐labelled peptides were used (excitation 495 nm, emission: 535 nm) and the FP signal was recorded in mP on a SpectraMax iD5 Multi‐Mode Microplate Reader (Molecular Devices) by measuring the emitted light in two angels. The measurements were performed at room temperature and prepared in nonbinding black half area 96‐well microplates (Corning®; 50 μl/well). For measuring direct binding, that is saturation curves, a 1:1 dilution series of protein domain (25 μl/well) was generated in 50 mM sodium phosphate buffer pH 7.4 and the measurement performed with 5 nM FITC‐labelled peptide (25 μl/well). The buffer‐corrected values were subsequently plotted with PRISM and fitted to the quadratic equation (Gianni et al, [2005]).
(§2) The 1:1 dilution series in this experiment was performed with the unlabelled peptide in 50 mM sodium phosphate buffer pH 7.4, so that each well‐contained unlabelled peptide (25 μl) at a certain concentration and pre‐formed complex (25 μl). The KD values of this indirectly monitored binding event were calculated as described previously (Nikolovska‐Coleska et al, [2004]). All measurements were at least in technical triplicates as well as biological duplicates when indicated. An amplitude shift between repeat measurements in the displacement experiments was occasionally observed due to variations in the protein preparations. If that was the case, the “active” protein concentration was back‐calculated according to the quadratic equation from the saturation curves performed in parallel. By comparing the active protein concentrations in the complex between different protein preparations, the amplitude was normalised.

The target in experiment [2] is T1, TSG101 UEV. Kind of experiment: Phosphomimetic ProP-PD selection, TSG101 UEV. To be noted: phosphomimetic enrichment score of the wild-type/phosphomimetic (E) pair at the phosphosite, PM_HD2 phage selection; positive = phosphomimetic enhances binding; P-value in brackets not taken. How it is done:
(§3) Selections using the PM_HD2 phage library were performed as described previously with minor modification to the original protocol. The corresponding tag protein (either GST or MBP) was first used during negative selections. Selections were run for 4 days. • Bait and tag proteins (10–15 μg in 100 μl PBS) were immobilised in 96‐well MaxiSorb plate (NUNC) o.n. at 4°C. • Escherichia coli OmniMax bacteria were grown in 2YT medium supplemented with tetracycline (100 μg/ml) at 37°C and 200 rpm. • Plates with immobilised bait/tag proteins were blocked with 0.5% BSA in PBS for 1 h at 4°C. • Phage library (10 μl/well) was prepared by diluting 10× with PBS and adding one‐fourth of the volume of PEG/NaCl. For phage precipitation, prepared library was incubated for 10 min on ice followed by centrifugation for 10 min at 10,000 × g at 4°C. […]
(§4) Based on the results from phage pool ELISAs, samples from selection Day 3 and 4 were selected for NGS, as described previously (Benz et al, [2022]). • Peptide coding regions were amplified and dual‐barcoded by PCR. […] From the columns, samples were eluted with 30 μl TE (10 mM Tris–HCl, 1 mM EDTA. pH 7.5) buffer and quantified with Quant‐iT PicoGreen dsDNA Assay Kit. • Samples were sequenced on MiSeq (MSC 2.5.0.5/RTA 1.18.54) with a 151 nt (Read1) setup using “Version3” chemistry. […]

Experiment [3] concerns the target T2, GABARAPL2 (Homo sapiens, UniProt P60520).
T2 construct: GABARAPL2_ATG8__P60520_2_115; GST (cleaved yes); made in house; host or cells: Escherichia coli BL21-Gold(DE3)
Kind of experiment: FP displacement assay, GABARAPL2. Type of experiment: binding. Particulars: read-out: KD values ± SEM. On the procedure: as §1, §2

For experiment [4], the target named is T2, GABARAPL2. Briefly: Phosphomimetic ProP-PD selection, GABARAPL2. Particulars: phosphomimetic enrichment score of the wild-type/phosphomimetic (E) pair at the phosphosite, PM_HD2 phage selection; positive = phosphomimetic enhances binding; P-value in brackets not taken. How it is done: as §3, §4
The target in experiment [5] is T3, MAP1LC3B (Homo sapiens, UniProt Q9GZQ8).
T3 construct: GST (cleaved yes); made in house; host or cells: Escherichia coli BL21-Gold(DE3)
Kind of experiment: Phosphomimetic ProP-PD selection, MAP1LC3B. To be noted: phosphomimetic enrichment score of the wild-type/phosphomimetic (E) pair at the phosphosite, PM_HD2 phage selection; positive = phosphomimetic enhances binding; P-value in brackets not taken. On the procedure: as §3, §4

In experiment [6] the target is T3, MAP1LC3B. Briefly: FP displacement assay, MAP1LC3B. Type of experiment: binding. Particulars: read-out: KD values ± SEM. On the procedure:
as §1, §2

The target in experiment [7] is T4, MAP1LC3A (Homo sapiens, UniProt Q9H492).
T4 construct: GST (cleaved yes); made in house; host or cells: Escherichia coli BL21-Gold(DE3)
Briefly: Phosphomimetic ProP-PD selection, MAP1LC3A. To be noted: phosphomimetic enrichment score of the wild-type/phosphomimetic (E) pair at the phosphosite, PM_HD2 phage selection; positive = phosphomimetic enhances binding; P-value in brackets not taken. On the procedure: as §3, §4

Experiment [8] has as its target T4, MAP1LC3A. Briefly: FP displacement assay, MAP1LC3A. Type of experiment: binding. To be noted: for IC50: Fig 4B, MAP1LC3A ATG8, FP displacement, technical triplicates, read-out: IC50 values of displacement curves, with SEM; for Kd: read-out: KD values ± SEM.
Where [9] appears, read: Fig 4B, TSG101 UEV, technical triplicates.
The mark [10] stands for this setting: probe FITC-HIV2_Gag 5 nM, 50 mM sodium phosphate pH 7.4, room temperature, at least three technical replicates.

Residues, ends and D or L forms follow the SMILES beside them.

T2 sequence (P60520 2-115): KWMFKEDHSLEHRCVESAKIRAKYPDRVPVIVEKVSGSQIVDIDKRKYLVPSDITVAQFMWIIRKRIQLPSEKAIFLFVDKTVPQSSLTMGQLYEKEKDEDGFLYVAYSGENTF

As for “H3COC-QSIAREPS(pS/E)APSIPTPY-NH2 [PDCD6IP711–725 E, phosphomimetic (E) PDCD6IP 711-725 peptide]”, on TSG101 UEV [1] (setting [9]), the “IC50 values of displacement curves, with SEM” value is listed as “n.b”. Besides, the “KD values ± SEM” value on TSG101 UEV [1] (setting [10]) is reported as “n.b”. Further, at TSG101 UEV [2], the PES is reported as −15 (0.00000004).

In the case of `CC(=O)N[C@@H](Cc1c[nH]cn1)C(=O)N[C@@H](CO)C(=O)NCC(=O)N[C@@H](CC(N)=O)C(=O)N[C@H](C(=O)N[C@@H](CCC(=O)O)C(=O)N1CCC[C@H]1C(=O)N[C@H](C(=O)N[C@@H](C)C(=O)N1CCC[C@H]1C(=O)N1CCC[C@H]1C(=O)N[C@@H](Cc1ccc(O)cc1)C(=O)N[C@@H](CC(C)C)C(=O)N[C@@H](CCC(N)=O)C(=O)N[C@@H](CCC(=O)O)C(=O)N[C@@H](CO)C(N)=O)[C@@H](C)O)C(C)C` [PIP4P2_17–32 E] (Ac-HSGNVEPTAPPYLQES-NH2), the IC50 at TSG101 UEV [1] (setting [9]) was determined as 37 ± 8 µM. In addition, the Kd at TSG101 UEV [1] (setting [10]) is 18 ± 2 µM. The PES at TSG101 UEV [2] is given as −14 (0.0000002).

For `CC(=O)N[C@@H](C)C(=O)N[C@@H](CC(N)=O)C(=O)N[C@@H](CO)C(=O)N[C@@H](Cc1c[nH]c2ccccc12)C(=O)N[C@@H](CCC(N)=O)C(=O)N[C@@H](CC(C)C)C(=O)N[C@H](C(=O)N[C@@H](CCC(=O)O)C(=O)N[C@@H](CCC(=O)O)C(=O)N1CCC[C@H]1C(=O)N[C@@H](CCC(=O)O)C(=O)N[C@@H](CCCCN)C(=O)N[C@@H](CCCNC(=N)N)C(=O)N[C@@H](CCCCN)C(=O)N[C@@H](CCC(=O)O)C(=O)N[C@@H](CCC(=O)O)C(N)=O)C(C)C` [DLGAP4_907–922 E] (Ac-ANSWQLVEEPEKRKEE-NH2), on GABARAPL2 [3], the Kd is 260 ± 25 µM. Moreover, the PES at GABARAPL2 [4] is −3.9 (0.00047).

`CC(=O)N[C@@H](Cc1ccc(O)cc1)C(=O)N[C@@H](CCCCN)C(=O)N[C@@H](CCCCN)C(=O)N[C@@H](CCC(N)=O)C(=O)N[C@@H](CC(C)C)C(=O)N[C@@H](CCCCN)C(=O)N[C@@H](CCCNC(=N)N)C(=O)N[C@@H](Cc1ccccc1)C(=O)N[C@@H](CCC(=O)O)C(=O)N[C@H](C(=O)N[C@@H](CCC(=O)O)C(=O)N[C@@H](CCC(=O)O)C(=O)N[C@@H](Cc1ccccc1)C(=O)N[C@H](C(=O)N[C@@H](CC(C)C)C(=O)N[C@@H](CC(C)C)C(=O)O)C(C)C)[C@@H](C)O` [ATG4C444–458 E] (Ac-YKKQLKRFETEEFVLL-OH): the dissociation constant (Kd) at GABARAPL2 [3] was determined as 1.8 ± 0.2 µM; on MAP1LC3B [6] it was 4.6 ± 0.5 µM; at MAP1LC3A [8], 3.1 ± 0.2 µM. Further, the PES at MAP1LC3B [5] is given as 6 (0.00063); at MAP1LC3A [7] it was 2.3 (0.015); at GABARAPL2 [4], 4.3 (0.0025). For the same compound, the IC50 at MAP1LC3A [8] was found to be 11 ± 1 µM.

As for `CSCC[C@H](NC(=O)[C@@H]1CCCN1C(=O)[C@H](CCC(=O)O)NC(=O)[C@H](CC(C)C)NC(=O)[C@@H]1CCCN1C(=O)[C@H](C)NC(=O)[C@@H](NC(=O)[C@@H]1CCCN1C(=O)[C@H](CO)NC(=O)[C@H](CO)NC(=O)[C@H](C)NC(=O)CNC(=O)[C@H](CC(N)=O)NC(=O)[C@H](Cc1ccc(O)cc1)NC(C)=O)[C@@H](C)O)C(=O)N[C@@H](CO)C(=O)N1CCC[C@H]1C(N)=O` [GJA1_269–283 E] (Ac-YNGASSPTAPLEPMSP-NH2), at TSG101 UEV [1] (setting [9]), the IC50 turned out to be 232 ± 13 µM. Besides, the Kd at TSG101 UEV [1] (setting [10]) worked out at 115 ± 4 µM. Further, at TSG101 UEV [2], the PES is 6 (0.0013).

On to `CC(=O)N[C@@H](CC(C)C)C(=O)N[C@@H](CCC(=O)O)C(=O)N[C@@H](CC(=O)O)C(=O)N[C@@H](CC(=O)O)C(=O)N[C@@H](CCC(=O)O)C(=O)N[C@@H](CCC(N)=O)C(=O)N[C@@H](Cc1ccccc1)C(=O)N[C@H](C(=O)N[C@@H](CCC(=O)O)C(=O)N[C@@H](CC(C)C)C(=O)N[C@@H](Cc1ccc(O)cc1)C(=O)NCC(=O)N[C@H](C(=O)N[C@@H](CCC(=O)O)C(=O)N[C@@H](CCC(=O)O)C(=O)N[C@@H](Cc1ccc(O)cc1)C(N)=O)[C@@H](C)O)C(C)C` [TBK1_164–179 E], for which the results for the Kd at GABARAPL2 [3] and at MAP1LC3B [6] were 12.4 ± 0.6 µM and 2.1 ± 0.2 µM, respectively. The PES is recorded as 5.1 (0.00047) at MAP1LC3B [5], 3.2 (0.0061) at MAP1LC3A [7] and 1 (0.11) on GABARAPL2 [4].

For the compound `CC(=O)N[C@@H](CCC(N)=O)C(=O)N[C@@H](CC(N)=O)C(=O)N[C@@H](CC(C)C)C(=O)N[C@@H](CO)C(=O)N[C@@H](CCCNC(=N)N)C(=O)N[C@@H](CCC(=O)O)C(=O)N[C@@H](Cc1c[nH]c2ccccc12)C(=O)N[C@@H](Cc1c[nH]cn1)C(=O)N[C@@H](CC(=O)O)C(=O)N[C@H](C(=O)N[C@@H](CCC(N)=O)C(=O)N[C@H](C(=O)N[C@@H](CO)C(=O)N[C@@H](CO)C(=O)N[C@@H](C)C(=O)N[C@@H](Cc1ccc(O)cc1)C(N)=O)C(C)C)C(C)C` [TPD52L2_91–106 E] (Ac-QNLSREWHDVQVSSAY-NH2), the PES on MAP1LC3B [5] is listed as 3 (0.012); on MAP1LC3A [7], 14 (0.000000099). For the same compound, the figures for the Kd on MAP1LC3B [6] and on MAP1LC3A [8] were 225 ± 17 µM and 78 ± 3 µM, respectively. On MAP1LC3A [8], the IC50 is 223 ± 12 µM.

Broadly, the IC50 is the concentration that gives 50% inhibition. Usually Kd stands for the equilibrium constant for the complex coming apart.

The values above are taken from PMC10333884, “Large‐scale phosphomimetic screening identifies phospho‐modulated motif‐based protein interactions” (Molecular Systems Biology, 2023).
